Laboratory results from article PMC9416163, “Antiproliferative Copper(II) Complexes Bearing Mixed Chelating Ligands: Structural Characterization, ROS Scavenging, In Silico Studies, and Anti-Melanoma Activity” (Pharmaceutics, 2022).

Assays:
[1] = system: Human fibroblast cells (BJ); assay: MTT cell viability assay on BJ cells; type: cell-based; conditions: for IC50: MTT
Method: (§1) Human fibroblast cells (BJ-ATCC CRL-2522, USA) were grown in minimal essential medium (MEM) supplemented with 2 mM L-Glutamine, 10% fetal calf serum (FCS), 100 units/mL of penicillin, and 100 µg/mL of streptomycin at 37 °C in a humidified incubator under an atmosphere containing 5% CO2. Mouse melanoma cells (B16-ATCC CRL-6475, USA) were grown in DMEM (Dulbecco’s Modified Eagle Medium) supplemented with reagents like MEM. All cell cultivation media and reagents were purchased from Biochrom AG (Berlin, Germany) and Sigma-Aldrich (Darmstadt, Germany).
(§2) Cell viability was evaluated using the MTT assay (3-(4,5-dimethylthiazol-2-yl)-2,5-diphenyltetrazolium bromide) as previously described. Briefly, BJ and B16 cells were seeded in 96-well plates at densities of 10,000 cells/well and 7000 cells/well and further cultured in the medium for 24 h. The next day, the investigated compounds were added at a concentration of 1 to 25 μM for 24 and 48 h. The cells cultivated in medium without the studied samples served as negative controls. After incubation for the desired times, the medium was replaced with MTT solution (1 mg/mL) and incubated for an additional 4 h at 37 °C. Finally, the medium was collected, and DMSO was used to dissolve the insoluble formazan product. A Mithras 940 (Berthold, Bad Wildbad, Germany) plate reader was used to measure the absorbance of the samples at 570 nm. The data were corrected for background, and the percentage of viable cells was obtained using the following equation:Cell viability = [(A570 of treated cells)/(A570 of untreated cells)] × 100 (%)
(§3) Half-maximal inhibitory concentration (IC50) was determined by fitting the data with a sigmoidal logistic function using Origin 8.1 (Microcal Inc., Northampton, MA, USA) software.

[2] = system: B16 murine melanoma cells; assay: MTT cell viability assay on B16 cells; type: cell-based, mouse; conditions: for IC50: MTT
Method: as §1, §2, §3

B16 cells = assay: Cell cycle analysis (PI, flow cytometry); type: cell-based, mouse; conditions: 24 h; for changes in the cell cycle: 1 μM or 5 μM; for cells in the G2/M phase: untreated 15.53%; for cells in the S phase: untreated 25.65%; for cells in the G0/G1 phase: untreated 49.70%
Method: Twenty-four hours after treatment of B16 cells with concentrations of 1 and 5 μM of each compound, cells were harvested and fixed with pre-chilled 70% ethanol solution at −20 °C. Cells were incubated with 0.2 mg/mL RNAse and 20 μg/mL propidium iodide (PI) in a 0.1% Triton TX-100 solution, in the dark, for 30 min at 37 °C. Cell cycle distribution was analyzed using a Beckman Coulter Cell Lab Quanta SC Flow Cytometer (Indianapolis, IN, USA), and the data were analyzed using the Quanta Analysis software.

[3] = EPR, interaction with superoxide (KO2); conditions: 100 µM in DMSO, KO2 added
Method: The C, N, and H chemical analyses were carried out with a EuroEA elemental analyzer. Fourier Transform Infrared spectroscopy (FTIR) spectra were recorded with a Tensor 37 spectrometer (Bruker, Billerica, MA, USA) in the 400–4000 cm^−1 range. A Jasco V 670 spectrophotometer (Jasco, Easton, MD, USA) with Spectralon as a standard in the 200–1500 nm range was used to record the UV-Vis spectra in solid-state. A continuous wave X-Band Bruker EMX plus EPR spectrometer (Bruker, Karlsruhe, Germany) equipped with a Bruker X-SHQ 4119HS-W1 X-Band resonator was used for the X-band EPR measurements. The parameters for the X-Band measurements were set as follows: microwave frequency 9.879 GHz, microwave power 6.325 mW, modulation amplitude 0.2 mT, conversion time 74.17 ms, and time constant 40.96 ms at 35 scans. All measurements were carried out at room temperature. Simultaneous Thermogravimetric/Differential Scanning Calorimetry–Mass spectroscopy (TG-DSC/MS) measurements were performed on a TGA/DSC1 Thermal Analyser (Mettler Toledo, Schwarzenbach, Switzerland), coupled to a Vacuum Thermostar Mass Spectrometer (Pfeiffer, Asslar, Germany) under the following conditions: isothermal conditioning at 25 °C, temperature range from 25 to 800 °C, heating rate 5 °C/min, dynamic air atmosphere with a flow rate of 100 mL/min, sample masses of 2–4 mg, 150 μL platinum crucible; empty crucible served as reference. The blank curve was subtracted. Evolved gasses were introduced into the Mass Spectrometer via a 75 cm heated capillary.
In contrast, all compounds in the presence of HO⋅ radicals show the trapping ability of these radicals, as indicated by the additional EPR signals in all four EPR spectra.

MKN-45 cells = system: MKN-45 cells; parameters: method as in doi:10.1080/00958972.2018.1447668; conditions: 48 h of incubation; cited from earlier work

CC(=O)C=C([O-])c1ccccc1.[Cu+2].[O-][Cl+3]([O-])([O-])[O-].c1ccc(-c2ccccn2)nc1 [Compound (3), [Cu(bpy)(bzac)]ClO4]
IC50 ([1]; 24 h): 11 µM
IC50 ([1]; 48 h): 10.4 µM
IC50 ([2]; 24 h): 8.28 µM
IC50 ([2]; 48 h): 4.65 µM
changes in the cell cycle (B16 cells): no changes in the cell cycle were observed
response to O2⋅^− radicals (EPR) [3]: exhibit a scavenging response
cytotoxicity compared with 5-fluorouracil (MKN-45 cells): significantly more cytotoxic against MKN-45 cells than 5-fluorouracil

CC(=O)C=C([O-])c1ccccc1.O=[N+]([O-])[O-].[Cu+2].c1ccc(-c2ccccn2)nc1 [Compound (4), [Cu(bpy)(bzac)(NO3)]]
IC50 ([1]; 24 h): 11.7 µM
IC50 ([1]; 48 h): 10.3 µM
IC50 ([2]; 24 h): 6.43 µM
IC50 ([2]; 48 h): 4.7 µM
changes in the cell cycle (B16 cells): no changes in the cell cycle were observed
response to O2⋅^− radicals (EPR) [3]: neither scavenging nor a trapping ability toward superoxide radicals

CC(=O)C=C([O-])c1ccccc1.[Cu+2].[O-][Cl+3]([O-])([O-])[O-].c1cnc2c(c1)ccc1cccnc12 [Compound (1), [Cu(phen)(bzac)(ClO4)]]
cell viability ([1]; 10 μM): 20%
IC50 ([1]; 24 h): 3.95 µM
IC50 ([1]; 48 h): 2.8 µM
cell viability ([1]; up to 25 μM): about 15%
cell viability ([2]; 10 μM): 10%
IC50 ([2]; 24 h): 3.48 µM
IC50 ([2]; 48 h): 2.2 µM
cell viability ([2]; up to 25 μM): about 5%
cells in the sub-G1 phase (B16 cells; 5 μM, untreated 9.11%): 18.43%
cells in the G2/M phase (B16 cells; 5 μM): 5.59%
cells in the S phase (B16 cells; 5 μM): 15.82%
cells in the G0/G1 phase (B16 cells; 5 μM): 60.14%
response to O2⋅^− radicals (EPR) [3]: exhibit a scavenging response
cytotoxicity compared with 5-fluorouracil (MKN-45 cells): significantly more cytotoxic against MKN-45 cells than 5-fluorouracil

CC(=O)C=C([O-])c1ccccc1.O.O=[N+]([O-])[O-].[Cu+2].c1cnc2c(c1)ccc1cccnc12 [Compound (2), [Cu(phen)(bzac)(NO3)]⋅H2O]
cell viability ([1]; 10 μM): 20%
IC50 ([1]; 24 h): 4.85 µM
IC50 ([1]; 48 h): 2.48 µM
cell viability ([1]; up to 25 μM): about 15%
cell viability ([2]; 10 μM): 10%
IC50 ([2]; 24 h): 2.65 µM
IC50 ([2]; 48 h): 1.44 µM
cell viability ([2]; up to 25 μM): about 5%
cells in the G2/M phase (B16 cells; 5 μM): 10.78%
cells in the S phase (B16 cells; 5 μM): 13.81%
cells in the G0/G1 phase (B16 cells; 5 μM): 54.90%
response to O2⋅^− radicals (EPR) [3]: exhibit a scavenging response
